Consider 17 molecules from US9428483B2, “Prodrug of fluorine-containing amino acid” (TAISHO PHARMACEUTICAL CO., LTD., priority 2012, dated 2016).

Data set [1] in a line: Test 1: Solution Stability Test. It counts as physicochemical. The following applies: 37° C., one hour, about 50 μg/mL; for Compound's percent residue (%) pH 6.5: 20 mM phosphate buffer (pH 6.5); for Compound's percent residue (%) pH 1.2: hydrochloric acid solution (pH 1.2). Here is the method:
Inventive Compounds (I) were tested for their stability in solutions simulating the gastric and small intestine's digestive fluids identified below.
The percent residues of Inventive Compounds (I) in a hydrochloric acid solution (pH 1.2) and 20 mM phosphate buffer (pH 6.5) were measured in accordance with the following test method.
A test compound was dissolved in a hydrochloric acid solution (pH 1.2) containing hydrochloric acid and sodium chloride or a 20 mM phosphate buffer (pH 6.5) containing disodium hydrogenphosphate, sodium dihydrogenphosphate and sodium chloride to prepare a solution with a concentration of about 50 μg/mL (near the solubility if undissolved). The solution was incubated at 37° C. for an hour and the compound's concentration before and after the incubation was quantified by high-performance liquid chromatography to calculate the percent residue of the compound.

Data set [2] is described as follows: Test 4: percent generation of Compound (IV) in human small intestine S9. It counts as in vitro ADME. To be noted: 3 μM, 1 mg protein/mL, 37° C. x 1 hr. Here is the method: A test to determine the percent generation of Compound (IV) in human intestine S9 was conducted for Inventive Compounds (I) in accordance with the following method.
Inventive Compounds were incubated (37° C.×1 hr) in a 0.1 M phosphate buffer (pH 7.4) together with a human intestine S9 fraction (Xenotech, LLC/CP710571/Lot, 710571) in the presence of Mg^2+ (5 mM), Ca^2+ (5 mM) and Zn^2+ (0.1 mM). The final concentrations of each Inventive Compound and the small intestine S9 protein were adjusted to 3 μM and 1 mg protein/mL, respectively. To the incubated reaction mixture, 3 volumes of DMSO was added, followed by stirring and centrifugation at 3000 rpm (4° C.×10 min). The resulting supernatant was subjected to analysis by a liquid chromatography-tandem mass spectrometry (LC-MS/MS) system. The lower quantitation limit was 0.3 μM for both Inventive Compounds (I) and Compound (IV).
The LC-MS/MS system used in the measurement was equipped with Waters XBridge Amide (3.5 μm, 50 mm×4.6 mm I.D.), Waters Atlantis T3 (3 μm, 50 mm×4.6 mm I.D.), or Shimadzu Shim-pack XR-ODS (2.2 μm, 30 mm×3.0 mm I.D.) as a separation column. The mobile phase was a 0.1% formic acid/acetonitrile solution or a 0.1% formic acid/methanol solution (flow rate: 0.7-1.3 mL/min) and the analyte was eluted in a linear gradient mode. MS/MS detection of Inventive Compounds (I) and Compound (IV) was performed using an API4000 or Triple quad 5500 system with TurbolonSpray interface (both being products of AB SCIEX) in either a positive or negative ion detection mode. The percent generation of Compound (IV) in human small intestine S9 is shown in the following Table 6 with respect to Inventive Compounds.

Consider `CC(OC(=O)[C@H]1[C@@H]2C[C@H](F)[C@@](N)(C(=O)O)[C@@H]21)OC(=O)C12CC3CC(CC(C3)C1)C2` (stereo partly drawn) [Ex. A-2, (1S,2S,3S,5R,6S)-6-(1-((adamantane-1-carbonyl)oxy)ethoxy)carbonyl-2-amino-3-fluorobicyclo[3.1.0]hexane-2-carboxylic acid], for which, in data set [1], the “Compound's percent residue (%) pH 6.5” value is given as 101% and the “Compound's percent residue (%) pH 1.2” value was found to be 101%.
In the case of `Cl.O=C(O)[C@H]1[C@@H]2C[C@H](F)[C@@](NC(=O)[C@@H]3CCCN3)(C(=O)O)[C@@H]21` [Ex. D-10, (1S,2S,3S,5R,6S)-3-fluoro-2-((S)-pyrrolidine-2-(carboxyamide))bicyclo[3.1.0]hexane-2,6-dicarboxylic acid hydrochloride], the “Percent generation (%) of Compound IV in human small intestine S9” value (shortened to “Percent generation (%) of Compound IV”) in data set [2] is recorded as under 10%.
`CC(C)OC(=O)OC(C)OC(=O)[C@H]1[C@@H]2C[C@H](F)[C@@](N)(C(=O)O)[C@@H]21.O=C(O)C(F)(F)F` (stereo partly drawn) [Ex. A-15, (1S,2S,3S,5R,6S)-2-amino-3-fluoro-6-((1-((isopropyloxycarbonyl)oxy)ethoxy)carbonyl)bicyclo[3.1.0]hexane-2-carboxylic acid trifluoroacetate]: in data set [1], the “Compound's percent residue (%) pH 6.5” value stood at 101% and the “Compound's percent residue (%) pH 1.2” value is 102%.
On the same counts, the results for `N[C@]1(C(=O)O)[C@H]2[C@@H](C[C@@H]1F)[C@@H]2C(=O)OCOC(=O)OC12CC3CC(CC(C3)C1)C2` [Ex. A-13, (1S,2S,3S,5R,6S)-6-(((((adamantan-1-yloxy)carbonyl)oxy)methoxy)carbonyl)-2-amino-3-fluorobicyclo[3.1.0]hexane-2-carboxylic acid] are 93% and 93%.
Turning to `Cl.NCCCC[C@H](N)C(=O)N[C@]1(C(=O)O)[C@H]2[C@@H](C[C@@H]1F)[C@@H]2C(=O)O` [Ex. D-5, (1S,2S,3S,5R,6S)-2-((S)-2,6-diaminohexanamide)-3-fluorobicyclo[3.1.0]hexane-2,6-dicarboxylic acid hydrochloride], in data set [2], the “Percent generation (%) of Compound IV” value is on record as 25.9%.
As for `N[C@]1(C(=O)O)[C@H]2[C@@H](C[C@@H]1F)[C@@H]2C(=O)OCOC(=O)C12CC3CC(CC(C3)C1)C2` [Ex. A-1, (1S,2S,3S,5R,6S)-6-(((adamantane-1-carbonyl)oxy)methoxy)carbonyl-2-amino-3-fluorobicyclo[3.1.0]hexane-2-carboxylic acid], in data set [1], the “Compound's percent residue (%) pH 6.5” value is recorded as 99% and the “Compound's percent residue (%) pH 1.2” value is on record as 100%.
`Cl.N[C@]1(C(=O)O)[C@H]2[C@@H](C[C@@H]1F)[C@@H]2C(=O)OC1OC(=O)c2ccccc21` (stereo partly drawn) [Ex. A-17, (1S,2S,3S,5R,6S)-2-amino-3-fluorobicyclo[3.1.0]hexane-2,6-dicarboxylic acid 6-(3-phthalidyl) ester hydrochloride]: in data set [1], the “Compound's percent residue (%) pH 6.5” value came out at 97% and the “Compound's percent residue (%) pH 1.2” value was found to be 99%.
For `CSCC[C@@H](N)C(=O)N[C@]1(C(=O)O)[C@H]2[C@@H](C[C@@H]1F)[C@@H]2C(=O)O.Cl` [Ex. D-11, (1S,2S,3S,5R,6S)-2-((R)-2-amino-4-(methylthio)butanamide)-3-fluorobicyclo[3.1.0]hexane-2,6-dicarboxylic acid hydrochloride], in data set [2], the “Percent generation (%) of Compound IV” value is under 10%.
Regarding `C[C@H](N)C(=O)N[C@@H](C)C(=O)N[C@]1(C(=O)O)[C@H]2[C@@H](C[C@@H]1F)[C@@H]2C(=O)O.Cl` [Ex. D-8, (1S,2S,3S,5R,6S)-2-((S)-2-((S)-2-aminopropanamide)propanamide)-3-fluorobicyclo[3.1.0]hexane-2,6-dicarboxylic acid hydrochloride], the “Percent generation (%) of Compound IV” value in data set [2] worked out at 11.7%.
In the case of `CC(OC(=O)OC1CCCCC1)OC(=O)[C@H]1[C@@H]2C[C@H](F)[C@@](N)(C(=O)O)[C@@H]21` (stereo partly drawn) [Ex. A-10, (1S,2S,3S,5R,6S)-2-amino-6-((1-(((cyclohexyloxy)carbonyl)oxy)ethoxy)carbonyl)-3-fluorobicyclo[3.1.0]hexane-2-carboxylic acid], in data set [1], the “Compound's percent residue (%) pH 6.5” value was 97% and the “Compound's percent residue (%) pH 1.2” value is given as 100%.
Turning to `Cl.N[C@@H](Cc1ccccc1)C(=O)N[C@]1(C(=O)O)[C@H]2[C@@H](C[C@@H]1F)[C@@H]2C(=O)O` [Ex. D-9, (1S,2S,3S,5R,6S)-2-((S)-2-amino-3-phenylpropanamide)-3-fluorobicyclo[3.1.0]hexane-2,6-dicarboxylic acid hydrochloride], the “Percent generation (%) of Compound IV” value in data set [2] is under 10%.
Take `CC(C)[C@@H]1CC[C@@H](C)C[C@H]1OC(=O)OCOC(=O)[C@H]1[C@@H]2C[C@H](F)[C@@](N)(C(=O)O)[C@@H]21` [Ex. A-4, (1S,2S,3S,5R,6S)-2-amino-3-fluoro-6-(((((((1R,2S,5R)-2-isopropyl-5-methylcyclohexyl)oxy)carbonyl)oxy)methoxy)carbonyl)bicyclo[3.1.0]hexane-2-carboxylic acid]: in data set [1], the “Compound's percent residue (%) pH 6.5” value came to 98% and the “Compound's percent residue (%) pH 1.2” value stood at 99%.
For the molecule `Cc1oc(=O)oc1COC(=O)[C@H]1[C@@H]2C[C@H](F)[C@@](N)(C(=O)O)[C@@H]21` [Ex. A-16, (1S,2S,3S,5R,6S)-2-amino-3-fluoro-6-(((5-methyl-2-oxo-1,3-dioxol-4-yl)methoxy)carbonyl)bicyclo[3.1.0]hexane-2-carboxylic acid], in data set [1], the “Compound's percent residue (%) pH 6.5” value came to 98% and the “Compound's percent residue (%) pH 1.2” value is given as 99%.
In the case of `CC(C)COC(C)OC(=O)[C@H]1[C@@H]2C[C@H](F)[C@@](N)(C(=O)O)[C@@H]21.Cl` (stereo partly drawn) [Ex. A-8, (1S,2S,3S,5R,6S)-2-amino-3-fluoro-6-((1-(isobutyloxy)ethoxy)carbonyl)bicyclo[3.1.0]hexane-2-carboxylic acid hydrochloride], in data set [1], the “Compound's percent residue (%) pH 6.5” value turned out to be 101% and the “Compound's percent residue (%) pH 1.2” value turned out to be 100%.
`CC(OC(=O)OC12CC3CC(CC(C3)C1)C2)OC(=O)[C@H]1[C@@H]2C[C@H](F)[C@@](N)(C(=O)O)[C@@H]21` (stereo partly drawn) [Ex. A-14, (1S,2S,3S,5R,6S)-6-((1-(((adamantan-1-yloxy)carbonyl)oxy)ethoxy)carbonyl)-2-amino-3-fluorobicyclo[3.1.0]hexane-2-carboxylic acid]: in data set [1], the “Compound's percent residue (%) pH 6.5” value worked out at 97% and the “Compound's percent residue (%) pH 1.2” value stood at 95%.
Consider `CC(OC(=O)O[C@@H]1C[C@H](C)CC[C@H]1C(C)C)OC(=O)[C@H]1[C@@H]2C[C@H](F)[C@@](N)(C(=O)O)[C@@H]21` (stereo partly drawn) [Ex. A-3, (1S,2S,3S,5R,6S)-2-amino-3-fluoro-6-((1-(((((1R,2S,5R)-2-isopropyl-5-methylcyclohexyl)oxy)carbonyl)oxy)ethoxy)carbonyl)bicyclo[3.1.0]hexane-2-carboxylic acid], for which, in data set [1], the “Compound's percent residue (%) pH 6.5” value came out at 100% and the “Compound's percent residue (%) pH 1.2” value was 100%.
On to `CC(C)(C)C(=O)OCOC(=O)[C@H]1[C@@H]2C[C@H](F)[C@@](N)(C(=O)O)[C@@H]21` [Ex. A-7, (1S,2S,3S,5R,6S)-2-amino-3-fluoro-6-(((pivaloyloxy)methoxy)carbonyl)bicyclo[3.1.0]hexane-2-carboxylic acid], for which, in data set [1], the “Compound's percent residue (%) pH 6.5” value amounted to 99% and the “Compound's percent residue (%) pH 1.2” value is reported as 100%.
